Measurements taken from article PMC11357404, “Cytotoxic and Anti-HSV-1 Effects of Caulerpin Derivatives” (Molecules, 2024).
“Also recorded” adds a separate entry of the source.

Legend:
[1] = system: Vero cells; experiment: Cytotoxicity, MTT assay in Vero cells; assay type: cell-based, Cercopithecus aethiops; details: Chlorocebus sabaeus; Vero cells, MTT, 72 h, 200 to 1800 µM
Procedure: (§1) The method of Cheng et al. was followed with modifications to evaluate the cytotoxicity of caulerpin analogs 1, 2, 3, 4, 5, 7, 8, 9, 10, and 11 at concentrations ranging from 200 to 1800 µM. Vero cells (African green monkey kidney cells Cercopithecus aethiops; ATCC, Manassas, VA, USA) grown in Dulbecco’s modified medium (DMEM) supplemented with 5% fetal bovine serum (FBS), […], and 2.5 µg/mL gentamicin at 37 °C in 5% CO2 were used. Each test sample was diluted in DMEM containing 2% fetal bovine serum at six different concentrations. Vero cells were plated at a concentration of 2 × 10^4 cells/well and incubated for 24–36 h. […] After this time, the medium was discarded and 20 μL of MTT solution was added to each well. The plates were incubated for four hours at 37 °C. Subsequently, the supernatant was removed, and 150 μL of DMSO was added to each well to dissolve the formazan crystals. The plates were shaken for 10 min, followed by absorbance reading in an ELISA microplate reader at a wavelength of 540 nm.
(§2) The MTT assay was validated by constructing a trend line using linear regression in the GraphPad Prism Version 6.01 program. Assays that presented R^2 greater than 0.70 were considered appropriate. After the validation of the MTT assay, the CC50 and CC20 values of each tested analog were calculated.

[2] = Cytotoxicity, MTT assay in Vero cells; assay type: cell-based, Cercopithecus aethiops; details: African green monkey (Cercopithecus aethiops); for CC50 at 72 h: Absolute CC50, Vero cells, MTT; for viability at 72 h: Vero cells, cell viability curves (Figure 2), read-out: maximum percentage of cell viability
Procedure: as §1, §2

[3] = system: Herpes simplex virus type 1 (HSV-1) in Vero cells; experiment: Antiviral screening, treatment concomitant to infection (MTT); assay type: cell-based; details: HSV-1 MOI 0.2, compound at CC20, 72 h; for inhibition of HSV-1-induced cytotoxicity (in words): versus untreated control or acyclovir
Procedure: (§3) The antiviral screening tests were performed following the method of Cheng et al., with modifications. For the anti-HSV-1 (herpes simplex virus type 1) activity of caulerpin analogs, Vero cells were used under the same conditions as described for the cytotoxicity test. The assay was divided into two steps:
Cells were infected with HSV-1 (MOI 0.2) and treated with the compound’s CC20 (concentration toxic to 20% of cells). The plates were incubated at 37 °C in 5% CO2 for 72 h, and cell viability was assessed using the MTT method.
(§4) In both assays, wells containing only cell medium were used as controls for cell growth. For positive control, wells containing medium and virus were used, and wells containing medium, virus, and acyclovir were used as a negative control.
(§5) The inhibition ratio was calculated using the following equation. % Inhibition=(OD treatment−OD positivecontrol)/(OD cell growth−OD positive control)×100 where OD = Optical density (absorbance).

[4] = system: Herpes simplex virus type 1 (HSV-1) in Vero cells; experiment: Antiviral screening, post-infection treatment (MTT); assay type: cell-based; details: HSV-1 MOI 0.2 for 1 h, compound at CC20, 72 h, versus infected untreated control or acyclovir
Procedure: as §3
After removing the culture medium, the HSV-1 (MOI 0.2) was added to the wells containing cells for 1 h. After this time, the cells were washed, and the tested compounds and acyclovir were added to their CC20. The plates were incubated at 37 °C in 5% CO2 for 72 h and cell viability was assessed using the MTT method.
as §4, §5

[5] = system: cancer cell; parameters: method as in PMID 25237346; details: caulerpin extracted from C. peltata; cited from earlier work
[6] = system: Chikungunya virus; details: cited from earlier work
[7] = system: Vero cells; parameters: method as in doi:10.1590/S0102-695X2012005000072; details: cited from earlier work

Which results are given for `O=C(O)C1=Cc2c(n(Cc3ccccc3)c3ccccc23)C(C(=O)O)=Cc2c1n(Cc1ccccc1)c1ccccc21` [Analog 13, (6E,13E)-5,12-Dibenzyl-5,12-dihydrocycloocta[1,2 b: 5,6-b′]diindol-6,13-dicarboxylic acid]?
Emax [1]: 41 ± 1.2%; CC50 at 72 h [2]: 494 ± 51.4 µM

With `O=C(O)C1=Cc2c([nH]c3ccccc23)C(C(=O)O)=Cc2c1[nH]c1ccccc21` [Analog 9, (6E,13E)-5,12-Dihydrocycloocta[1,2b:5,6-b′]diindol-6,13-dicarboxylic acid] as the compound, how does the Emax [1] read?
Its Emax is 62.6 ± 0.7%.

And the CC50 at 72 h [2]?
The CC50 at 72 h was 1040 ± 62.4 µM.

For `C=CCn1c2c(c3ccccc31)C=C(C(=O)O)c1c(c3ccccc3n1CC=C)C=C2C(=O)O` [Analog 12, (6E,13E)-5,12-Diallyl-5,12-dihydrocycloocta[1,2b:5,6-b′]diindol-6,13-dicarboxylic acid], which “inhibition of HSV-1-induced cytotoxicity (in words)” value (shortened to “inhibition … (in words)”) [3] is on record?
Its value is “significant inhibition; also recorded: efficacy similar to the antiviral agent acyclovir”.

And the “inhibition … (in words)” value [4]?
Its value is “higher percentages of cellular inhibition compared to the control group”.

What about the Emax [1] of the same compound?
Its Emax is 44.5 ± 1.3%.

What about the CC50 at 72 h [2] of the same compound?
Its CC50 at 72 h is 664 ± 55.3 µM.

For `Nc1nc2c(ncn2COCCO)c(=O)[nH]1` [Acyclovir, reference compound], which “inhibition percentage of HSV-1-induced cytotoxicity” value ([3]; Vero cells) is on record?
The value was 52.79%.

For `COC(=O)/C1=C/c2c([nH]c3ccccc23)/C(C(=O)OC)=C\c2c1[nH]c1ccccc21` [Analog 1, (6E,13E)-dimethyl-5,12-dihydrocycloocta[1,2b:5,6-b′]diindol-6,13-dicarboxylate], which “inhibition of cancer cell growth” value [5] is on record?
The value was 12%.

And the “inhibition … (in words)” value [4]?
The value was “higher percentages of cellular inhibition compared to the control group”.

And the Emax [1]?
The Emax was 52.7 ± 1.8%.

And the CC50 at 72 h [2]?
Its CC50 at 72 h is 688 ± 35.2 µM.

What about the EC50 ([6]; Chikungunya virus, read-out: EC50 inhibitory effect) of the same compound?
The EC50 was 0.8 µM.

What about the “inhibition of viral infectivity (virucidal activity)” value ([6]; at 5 μM concentration) of the same compound?
Its value is about 90%.

What about the CC50 [7] of the same compound?
Its CC50 is 1180 µM.

For `CCn1c2c(c3ccccc31)C=C(C(=O)OC)c1c(c3ccccc3n1CC)C=C2C(=O)OC` [Analog 3, (6E,13E)-Dimethyl-5,12-diethyl-5,12 dihydrocycloocta[1,2 b: 5,6-b′]diindole-6,13-dicarboxylate], which “inhibition … (in words)” value [3] is on record?
The value was “significant inhibition”.

What about the “inhibition … (in words)” value [4] of the same compound?
Its value is “higher percentages of cellular inhibition compared to the control group”.

What about the Emax [1] of the same compound?
Its Emax is 51.5 ± 0.9%.

What about the CC50 at 72 h [2] of the same compound?
The CC50 at 72 h was 548 ± 38.8 µM.

With `Cn1c2c(c3ccccc31)C=C(C(=O)O)c1c(c3ccccc3n1C)C=C2C(=O)O` [Analog 10, (6E,13E)-5,12-Dimethyl-5-dihydrocycloocta[1,2b:5,6-b’]diindol-6,13-dicarboxylic acid] as the compound, how does the “inhibition … (in words)” value [4] read?
The value was “higher percentages of cellular inhibition compared to the control group; also recorded: antiviral effects statistically similar to acyclovir”.

And the Emax [1]?
Its Emax is 71.8 ± 0.3%.

And the CC50 at 72 h [2]?
The CC50 at 72 h was 679 ± 38.3 µM.

With `CCn1c2c(c3ccccc31)C=C(C(=O)O)c1c(c3ccccc3n1CC)C=C2C(=O)O` [Analog 11, (6E,13E)-5,12-Diethyl-5,12-dihydrocycloocta[1,2b:5,6-b′]diindol-6,13-dicarboxylic acid] as the compound, how does the “inhibition … (in words)” value [3] read?
The value was “significant inhibition; also recorded: efficacy similar to the antiviral agent acyclovir”.

What about the “inhibition … (in words)” value [4] of the same compound?
The value was “higher percentages of cellular inhibition compared to the control group; also recorded: antiviral effects statistically similar to acyclovir”.

What about the Emax [1] of the same compound?
The Emax was 62.7 ± 0.8%.

And the CC50 at 72 h [2]?
The CC50 at 72 h was 1000 ± 41.6 µM.

Which results are given for `COC(=O)C1=Cc2c(n(Cc3ccccc3)c3ccccc23)C(C(=O)OC)=Cc2c1n(Cc1ccccc1)c1ccccc21` [Analog 6, (6E,13E)-Dimethyl-5,12-dinzyl 5,12-dihydrocycloocta[1,2b:5,6-b′]diindol-6,13-dicarboxylate]?
inhibition of HSV-1-induced cytotoxicity (in words) [3]: significant inhibition; inhibition of HSV-1-induced cytotoxicity (in words) [4]: higher percentages of cellular inhibition compared to the control group; Emax [1]: 74.1 ± 1.8%; CC50 at 72 h [2]: 891 ± 87.8 µM

Which Emax [1] does the source give for `C=CCn1c2c(c3ccccc31)C=C(C(=O)OC)c1c(c3ccccc3n1CC=C)C=C2C(=O)OC` [Analog 4] here?
The Emax was 70.1 ± 1.1%.

What about the CC50 at 72 h [2] of the same compound?
Its CC50 at 72 h is 628 ± 69.8 µM.

What about the viability at 72 h [2] of the same compound?
Its viability at 72 h is under 75%.

Which results are given for `COC(=O)C1=Cc2c(n(C)c3ccccc23)C(C(=O)OC)=Cc2c1n(C)c1ccccc21` [Analog 2, (6E,13E)-Dimethyl-5,12-dimethyl-5,12 dihydrocycloocta[1,2 b: 5,6-b′]diindol-6,13-dicarboxylate]?
Emax [1]: 68.4 ± 0.2%; CC50 at 72 h [2]: 524 ± 19.3 µM; viability at 72 h [2]: < 75%
